From PubChem BioAssay (NCI)
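Growth conditions: 96-well plates. Treatment: test compound, 48 hours, 5 concentrations. Analysis: linear interpolation between bracketing concentrations; unreached endpoints set to highest concentration. GI50 marks 50% less growth. The concentration for full growth arrest is given as TGI.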

Tests used:
Experiment in all cases: growth of human tumour cells (NCI), 48 h
[1] = system: MDA-MB-231 breast
[2] = system: SNB-75 CNS
[3] = system: A549 NSCLC
[4] = system: SNB-19 CNS
[5] = system: U251 CNS
[6] = system: HCT-15 colon
[7] = system: EKVX NSCLC
[8] = system: NCI/ADR-RES ovarian
[9] = system: SF-539 CNS
[10] = system: NCI-H226 lung
[11] = system: NCI-H460 lung
[12] = system: OVCAR-5 ovarian
[13] = system: CCRF-CEM leukemia
[14] = system: SK-MEL-2 melanoma
[15] = system: NCI-H522 lung
[16] = system: BT-549 breast
[17] = system: HCT-116 colon
[18] = system: UACC-257 melanoma
[19] = system: MCF7 breast
[20] = system: DU-145 prostate
[21] = system: A498 renal
[22] = system: M14 melanoma
[23] = system: OVCAR-3 ovarian
[24] = system: TK-10 renal
[25] = system: HT29 colon
[26] = system: OVCAR-4 ovarian
[27] = system: T-47D breast
[28] = system: SK-MEL-5 melanoma
[29] = system: 786-0 renal
[30] = system: UO-31 renal
[31] = system: HCC-2998 colon
[32] = system: SF-268 CNS
[33] = system: KM12 colon
[34] = system: SN12C renal
[35] = system: HS 578T breast
[36] = system: IGROV1 ovarian
[37] = system: RPMI-8226 leukemia
[38] = system: SF-295 CNS
[39] = system: MDA-MB-435
[40] = system: HL-60(TB) leukemia
[41] = system: LOX IMVI melanoma
[42] = system: K-562 leukemia
[43] = system: COLO 205 colon
[44] = system: SR leukemia
[45] = system: NCI-H23 lung
[46] = system: UACC-62 melanoma
[47] = system: HOP-62 NSCLC
[48] = system: SK-MEL-28 melanoma
[49] = system: PC-3 prostate
[50] = system: SK-OV-3 ovarian
[51] = system: SW-620 colon
[52] = system: OVCAR-8 ovarian
[53] = system: MALME-3M melanoma
[54] = system: ACHN renal
[55] = system: HOP-92 NSCLC
[56] = system: MOLT-4 leukemia
[57] = system: CAKI-1 renal

Structure (SMILES): CCN(CCNc1ccc(C)c2sc3ccccc3c(=O)c12)CC(C)(C)O
- GI50 [1]: 6.88 µM
- TGI [1]: 23.7 µM
- GI50 [2]: 15.7 µM
- TGI [2]: 48.6 µM
- GI50 [3]: 6.84 µM
- TGI [3]: 25.5 µM
- GI50 [4]: 11.9 µM
- TGI [4]: 25.9 µM
- GI50 [5]: 5.67 µM
- TGI [5]: 19.4 µM
- GI50 [6]: 2.59 µM
- TGI [6]: 7.78 µM
- GI50 [7]: 20.1 µM
- TGI [7]: > 66.7 µM
- GI50 [8]: 14.1 µM
- TGI [8]: 56.1 µM
- GI50 [9]: 12.1 µM
- TGI [9]: 25.2 µM
- GI50 [10]: 15.2 µM
- TGI [10]: 33 µM
- GI50 [11]: 3.24 µM
- TGI [11]: 11.2 µM
- GI50 [12]: 16.8 µM
- TGI [12]: 36.5 µM
- GI50 [13]: 6.95 µM
- TGI [13]: 34.5 µM
- GI50 [14]: 11.9 µM
- TGI [14]: 33 µM
- GI50 [15]: 14.9 µM
- TGI [15]: 47.8 µM
- GI50 [16]: 15.3 µM
- TGI [16]: 36.6 µM
- GI50 [17]: 6.62 µM
- TGI [17]: 22.6 µM
- GI50 [18]: 2.15 µM
- TGI [18]: 5.43 µM
- GI50 [19]: 11.1 µM
- TGI [19]: 26.8 µM
- GI50 [20]: 15.4 µM
- TGI [20]: 38.2 µM
- GI50 [21]: 7.46 µM
- TGI [21]: 21.5 µM
- GI50 [22]: 4.21 µM
- TGI [22]: 12.2 µM
- GI50 [23]: 13.1 µM
- TGI [23]: 27.4 µM
- GI50 [24]: 14.3 µM
- TGI [24]: 33.7 µM
- GI50 [25]: 2.68 µM
- TGI [25]: 7.84 µM
- GI50 [26]: 21.2 µM
- TGI [26]: > 92.1 µM
- GI50 [27]: 13.4 µM
- TGI [27]: 47.3 µM
- GI50 [28]: 2.31 µM
- TGI [28]: 6.17 µM
- GI50 [29]: 8.31 µM
- TGI [29]: 23 µM
- GI50 [30]: 7.34 µM
- TGI [30]: 24.3 µM
- GI50 [31]: 8.81 µM
- TGI [31]: 27.3 µM
- GI50 [32]: 14.9 µM
- TGI [32]: 32.2 µM
- GI50 [33]: 4.23 µM
- TGI [33]: 14.1 µM
- GI50 [34]: 13.2 µM
- TGI [34]: 28.3 µM
- GI50 [35]: 11.5 µM
- TGI [35]: 29.2 µM
- GI50 [36]: 13.2 µM
- TGI [36]: 31.5 µM
- GI50 [37]: 2.11 µM
- TGI [37]: 8.04 µM
- GI50 [38]: 3.77 µM
- TGI [38]: 20.2 µM
- GI50 [39]: 6.51 µM
- TGI [39]: 28.6 µM
- GI50 [40]: 8.9 µM
- TGI [40]: > 35.7 µM
- GI50 [41]: 6.14 µM
- TGI [41]: 18.9 µM
- GI50 [42]: 2.94 µM
- TGI [42]: > 22.2 µM
- GI50 [43]: 3 µM
- TGI [43]: 13.2 µM
- GI50 [44]: 4.76 µM
- TGI [44]: > 100 µM
- GI50 [45]: 15.4 µM
- TGI [45]: 41.8 µM
- GI50 [46]: 2.9 µM
- TGI [46]: 9.48 µM
- GI50 [47]: 14.6 µM
- TGI [47]: 34.3 µM
- GI50 [48]: 6.16 µM
- TGI [48]: 17.8 µM
- GI50 [49]: 12.9 µM
- TGI [49]: 53.5 µM
- GI50 [50]: 11.1 µM
- TGI [50]: 27 µM
- GI50 [51]: 4.63 µM
- TGI [51]: 15.8 µM
- GI50 [52]: 17.8 µM
- TGI [52]: > 71.6 µM
- GI50 [53]: 17.8 µM
- TGI [53]: 54.6 µM
- GI50 [54]: 12.3 µM
- TGI [54]: 34.8 µM
- GI50 [55]: 5.47 µM
- TGI [55]: 20.5 µM
- GI50 [56]: 6.26 µM
- TGI [56]: > 46 µM
- GI50 [57]: 5.35 µM
- TGI [57]: 22.4 µM
